# Values joined by “and” are separate entries in the source; they are usually repeats but may differ in a detail not shown here. Identical values can stand only once. Bridges are numbered along the chain shown (N, C = ends). Where no end group is shown, it is not given here.
# Tests used:
# [1] = tested on: primary human umbilical vein endothelial cells (HUVEC); test: Transendothelial electrical resistance (TEER) of primary human umbilical vein endothelial cell monolayer; type: cell-based; settings: for TEER change relative to control, Average: average of N1-N9, control = 100; for TEER change relative to control: control average = 100, individual replicates N1-N9
# Method: To determine the effect of NX218 on transendothelial electrical resistance (TEER) of primary human umbilical vein endothelial cells (HUVEC), cells were grown on a semi-permeable membrane inserted in culture wells in presence or absence of NX218 and the TEER was recorded using electrodes placed on each side of the membrane and a resistance meter.
# HUVEC (PromoCell, C-12208) were cultured in EBM-2 basal media supplemented with bullet kit reagents (both from Lonza) in a 5% CO2 incubator at 37° C.
# HUVEC were grown on 6.5-mm-diameter, 0.4-μm-pore, polyester membrane HTS Transwell inserts (5×10^4 cells per well containing 200 μL and 800 μL of culture medium in the apical and basolateral compartments respectively). Two days after seeding, cells were treated with vehicle or NX218 (1, 10 and 100 μM) for 1 or 3 days. TEER values were measured using an EVOM resistance meter fitted with “chopstick” electrodes. One electrode was placed in the apical chamber and another one in the basolateral chamber. Before measurements, chambers were replaced with fresh medium.
# [2] = tested on: Claudin-5 at tight junction of mouse brain endothelial bEnd.3 cells; test: Claudin-5 immunocytochemistry at tight junction in mouse brain endothelial cell cultures; type: cell-based
# Method: To understand the effect of NX218 on the TEER and permeability of mouse brain endothelial cells in examples 3 and 4, the levels of the tight junction protein Claudin-5 were assessed using immunocytochemistry.
# Mouse brain endothelial cells (bEnd.3, American Type Culture Collection) were cultured in DMEM supplemented with 10% fetal FBS and 2 mM sodium pyruvate in a 5% CO2 incubator at 37° C.
# bEnd.3 cells were seeded on 1% fibronectin-coated Nunc Lab-Tek II Chamber Slides in culture medium (1×10^5 cells per well in 300 μL). Two days after seeding, cells were treated with vehicle or NX218 (1, 10 and 100 μM) for 1, 2 or 3 days. Cells were then fixed for 10 min at room temperature (RT) with 4% paraformaldehyde in phosphate buffered saline (PBS), washed twice with PBS and incubated with 5% normal goat serum and 0.05% Triton X-100 in PBS for 1 h at RT before overnight incubation with polyclonal rabbit anti-claudin-5 ( 1/100; 34-1600, Invitrogen) at 4° C. Cells were then washed three times with PBS and incubated with goat anti-rabbit Cy3 secondary antibody ( 1/500; ab6939, Abcam) for 2 h at RT and counterstained with Hoechst 33258 to visualize nuclei. The slide was removed from the chamber and mounted with Aqua Poly/Mount before visualization by confocal laser scanning/microscopy. Claudin-5 immunoreactivity (intensity) at membrane localization was finally quantified to evaluate Claudin-5 protein levels. The data are expressed as a percentage of the control condition.
# A second independent experiment using the protocol described at example 5 was performed. Pooling the data from the 2 experiments (the first experiment was done in triplicate, the 2nd in duplicate, n=5) improves the statistical power and allow to reach statistical significance for a tendency observed at 72 hours timepoint.
substance,measurement,setting,value
W-S-G-W-S-S-C-S-R-S-C-G (WSGWSSCSRSCG; disulfide 7-11 (inferred)) [NX218],"TEER change relative to control, Average","[1]; NX218 1 μM, 24 hours",104
same,TEER change relative to control,"[1]; NX218 1 μM, 24 hours",101.3 (3×) and 95.36 (2×) and 89.4 and 119.2 (2×) and 113.2
same,"TEER change relative to control, Average","[1]; NX218 1 μM, 72 hours",101.1
same,TEER change relative to control,"[1]; NX218 1 μM, 72 hours",113.1 (2×) and 97.71 and 87.43 and 82.29 and 92.57 and 123.4 and 128.6 and 72
same,"TEER change relative to control, Average","[1]; NX218 10 μM, 24 hours",119.2
same,TEER change relative to control,"[1]; NX218 10 μM, 24 hours",101.3 (2×) and 119.2 and 149 (2×) and 143 and 89.4 and 113.2 and 107.3
same,"TEER change relative to control, Average","[1]; NX218 10 μM, 72 hours",109.7
same,TEER change relative to control,"[1]; NX218 10 μM, 72 hours",97.71 and 118.3 and 123.4 and 87.43 and 102.9 and 108 (2×) and 128.6 and 113.1
same,"TEER change relative to control, Average","[1]; NX218 100 μM, 24 hours",158.9
same,TEER change relative to control,"[1]; NX218 100 μM, 24 hours",137.1 and 149 and 143 (2×) and 172.8 and 184.8 (2×) and 155 and 160.9
same,"TEER change relative to control, Average","[1]; NX218 100 μM, 72 hours",131.4
same,TEER change relative to control,"[1]; NX218 100 μM, 72 hours",144 (2×) and 138.9 and 108 (2×) and 123.4 and 133.7 and 154.3 and 128.6
same,"Resistance (TEER), result in words","[1]; NX218 at 100 μM for 1 or 3 days, compared with vehicle",significantly increased in a dose dependent manner
same,"Claudin-5 levels, result in words","[2]; 24 hours, NX218 at 10 and 100 μM",significant increase in Claudin-5 levels
same,Expression of Claudin-5 at tight junction,"[2]; FIG. 3, 24-hour treatment",increases the expression of Claudin-5 at tight junction
same,Expression of Claudin-5 at tight junction,"[2]; FIG. 5, 72-hour treatment",increases the expression of Claudin-5 at tight junction
same,"Expression of Claudin-5 at tight junction, Average","[2]; NX218 1 μM, 24 hours, bEnd.3, average of N1-N6",112.5 % of Control
same,Expression of Claudin-5 at tight junction,"[2]; NX218 1 μM, 24 hours, bEnd.3, individual replicates N1-N6",108.1 % of Control and 99.96 % of Control and 119.3 % of Control and 99.61 % of Control and 140.4 % of Control and 107.5 % of Control
same,"Expression of Claudin-5 at tight junction, Average","[2]; NX218 1 μM, 48 hours, bEnd.3, average of N1-N6",80.63 % of Control
same,Expression of Claudin-5 at tight junction,"[2]; NX218 1 μM, 48 hours, bEnd.3, individual replicates N1-N6",76.07 % of Control and 52.45 % of Control and 76.37 % of Control and 93.88 % of Control and 102.1 % of Control and 82.89 % of Control
same,"Expression of Claudin-5 at tight junction, Average","[2]; NX218 1 μM, 72 hours, bEnd.3, first experiment (Table 9), average of N1-N4",81.69 % of Control
same,Expression of Claudin-5 at tight junction,"[2]; NX218 1 μM, 72 hours, bEnd.3, first experiment (Table 9), individual replicates N1-N4",77.15 % of Control and 90.23 % of Control and 103.8 % of Control and 55.53 % of Control
same,"Expression of Claudin-5 at tight junction, Average","[2]; NX218 1 μM, 72 hours, bEnd.3, pooled data of 2 experiments (Table 12), average of N1-N7",96.00 % of Control
same,Expression of Claudin-5 at tight junction,"[2]; NX218 1 μM, 72 hours, bEnd.3, pooled data of 2 experiments (Table 12), individual replicates N1-N7",86.80 % of Control and 107.60 % of Control and 99.90 % of Control and 104.20 % of Control and 92.70 % of Control and 103.50 % of Control and 77.10 % of Control
same,"Expression of Claudin-5 at tight junction, Average","[2]; NX218 10 μM, 24 hours, bEnd.3, average of N1-N6",151.7 % of Control
same,Expression of Claudin-5 at tight junction,"[2]; NX218 10 μM, 24 hours, bEnd.3, individual replicates N1-N6",126.9 % of Control and 154.4 % of Control and 137 % of Control and 121.3 % of Control and 169.4 % of Control and 200.9 % of Control
same,"Expression of Claudin-5 at tight junction, Average","[2]; NX218 10 μM, 48 hours, bEnd.3, average of N1-N6",97.8 % of Control
same,Expression of Claudin-5 at tight junction,"[2]; NX218 10 μM, 48 hours, bEnd.3, individual replicates N1-N6",66.36 % of Control and 83.18 % of Control and 120.8 % of Control and 145.7 % of Control and 97.51 % of Control and 73.25 % of Control
same,"Expression of Claudin-5 at tight junction, Average","[2]; NX218 10 μM, 72 hours, bEnd.3, first experiment (Table 9), average of N1-N4",70.23 % of Control
same,Expression of Claudin-5 at tight junction,"[2]; NX218 10 μM, 72 hours, bEnd.3, first experiment (Table 9), individual replicates N1-N4",56.03 % of Control and 94.63 % of Control and 58.42 % of Control and 71.86 % of Control
same,"Expression of Claudin-5 at tight junction, Average","[2]; NX218 10 μM, 72 hours, bEnd.3, pooled data of 2 experiments (Table 12), average of N1-N7",97.80 % of Control
